Activity calls are given as the source filed them. No cut-off for these calls is given here.
How the values were obtained:
GM16216 [1] = experiment: Effect on mitochondrial membrane potential in human GM16216 cells assessed as intact mitochondrial membrane at 0.25 uM after 16 hrs by JC1 staining based flow cytometry (reference value: 87%); assay type: functional
GM16216 [2] = experiment: Effect on mitochondrial membrane potential in human GM16216 cells assessed as loss of mitochondrial membrane potential at 0.25 uM after 16 hrs by JC1 staining based flow cytometry (reference value: 13%); assay type: functional
GM15850 [3] = experiment: Effect on mitochondrial membrane potential in human GM15850 cells assessed as loss of mitochondrial membrane potential at 0.25 uM after 16 hrs by JC1 staining based flow cytometry (reference value: 13%); assay type: functional
GM15850 [4] = experiment: Effect on mitochondrial membrane potential in human GM15850 cells assessed as intact mitochondrial membrane at 0.25 uM after 16 hrs by JC1 staining based flow cytometry (reference value: 87%); assay type: functional
GM15850 [5] = experiment: Increase in frataxin expression in human GM15850 cells at 50 to 250 nM after 24 to 48 hrs by ELISA; assay type: functional, cell-based
GM16216 [6] = experiment: Effect on ATP production in human GM16216 cells at 0.1 uM after 24 hrs by Vialight reagent based luminescence assay; assay type: functional, cell-based
GM15850 [7] = experiment: Inhibition of ATP production in human GM15850 cells after 24 hrs by Vialight reagent based luminescence assay; assay type: functional, cell-based
GM15850 [8] = experiment: Induction of mitochondrial biogenesis in human GM15850 cells assessed as increase in ratio of COX1 to SDH-A protein levels at 50 to 250 nM after 24 to 48 hrs by ELISA; assay type: functional, cell-based
GM16216 [9] = experiment: Increase in frataxin expression in human GM16216 cells at 50 to 250 nM after 24 to 48 hrs by ELISA; assay type: functional, cell-based
GM16216 [10] = experiment: Cytoprotection against DEM-induced toxicity in human GM16216 cells assessed as increase in cell viability at 0.5 to 2.5 uM pretreated for 16 hrs followed by DEM addition and measured after 5 hrs by live/dead staining based flow cytometry; assay type: functional
GM16216 [11] = experiment: Inhibition of ATP production in human GM16216 cells after 24 hrs by Vialight reagent based luminescence assay; assay type: functional, cell-based
GM15850 [12] = experiment: Effect on ATP production in human GM15850 cells at 0.1 uM after 24 hrs by Vialight reagent based luminescence assay; assay type: functional, cell-based
GM16216 [13] = experiment: Induction of mitochondrial biogenesis in human GM16216 cells assessed as increase in ratio of COX1 to SDH-A protein levels at 50 to 250 nM after 24 to 48 hrs by ELISA; assay type: functional, cell-based
GM15850 [14] = experiment: Cytoprotection against DEM-induced toxicity in human GM15850 cells assessed as increase in cell viability at 0.5 to 2.5 uM pretreated for 16 hrs followed by DEM addition and measured after 5 hrs by live/dead staining based flow cytometry; assay type: functional
GM16216 [15] = experiment: Induction of mitochondrial biogenesis in human GM16216 cells assessed as ratio of COX1 to SDH-A protein levels at 50 after 48 hrs by ELISA relative to control; assay type: functional
GM16216 [16] = experiment: Effect on frataxin expression in human GM16216 cells at 250 nM after 24 hrs by ELISA relative to control; assay type: functional
GM15850 [17] = experiment: Effect on frataxin expression in human GM15850 cells at 250 nM after 48 hrs by ELISA relative to control; assay type: functional
GM15850 [18] = experiment: Effect on frataxin expression in human GM15850 cells at 50 nM after 24 hrs by ELISA relative to control; assay type: functional
GM15850 [19] = experiment: Induction of mitochondrial biogenesis in human GM15850 cells assessed as ratio of COX1 to SDH-A protein levels at 250 after 24 hrs by ELISA relative to control; assay type: functional
GM15850 [20] = experiment: Induction of mitochondrial biogenesis in human GM15850 cells assessed as ratio of COX1 to SDH-A protein levels at 250 after 48 hrs by ELISA relative to control; assay type: functional
GM15850 [21] = experiment: Effect on frataxin expression in human GM15850 cells at 50 nM after 48 hrs by ELISA relative to control; assay type: functional
GM16216 [22] = experiment: Effect on frataxin expression in human GM16216 cells at 250 nM after 48 hrs by ELISA relative to control; assay type: functional
GM16216 [23] = experiment: Restoration of total aconitase activity in human GM16216 cells at 50 nM after 5 days by colorimetric method relative to control; assay type: functional
GM16216 [24] = experiment: Effect on frataxin expression in human GM16216 cells at 50 nM after 24 hrs by ELISA relative to control; assay type: functional
GM15850 [25] = experiment: Induction of mitochondrial biogenesis in human GM15850 cells assessed as ratio of COX1 to SDH-A protein levels at 50 after 48 hrs by ELISA relative to control; assay type: functional
GM15850 [26] = experiment: Effect on frataxin expression in human GM15850 cells at 250 nM after 24 hrs by ELISA relative to control; assay type: functional
GM15850 [27] = experiment: Restoration of total aconitase activity in human GM15850 cells at 50 nM after 5 days by colorimetric method relative to control; assay type: functional
GM16216 [28] = experiment: Effect on frataxin expression in human GM16216 cells at 50 nM after 48 hrs by ELISA relative to control; assay type: functional
GM16216 [29] = experiment: Restoration of total aconitase activity in human GM16216 cells at 250 nM after 5 days by colorimetric method relative to control; assay type: functional
GM16216 [30] = experiment: Induction of mitochondrial biogenesis in human GM16216 cells assessed as ratio of COX1 to SDH-A protein levels at 50 after 24 hrs by ELISA relative to control; assay type: functional
GM15850 [31] = experiment: Induction of mitochondrial biogenesis in human GM15850 cells assessed as ratio of COX1 to SDH-A protein levels at 50 after 24 hrs by ELISA relative to control; assay type: functional
GM16216 [32] = experiment: Induction of mitochondrial biogenesis in human GM16216 cells assessed as ratio of COX1 to SDH-A protein levels at 250 after 24 hrs by ELISA relative to control; assay type: functional
GM16216 [33] = experiment: Induction of mitochondrial biogenesis in human GM16216 cells assessed as ratio of COX1 to SDH-A protein levels at 250 after 48 hrs by ELISA relative to control; assay type: functional
GM15850 [34] = experiment: Restoration of total aconitase activity in human GM15850 cells at 250 nM after 5 days by colorimetric method relative to control; assay type: functional
GM16216 [35] = experiment: Cytotoxicity against human GM16216 cells at 2.5 uM after 24 to 48 hrs by live/dead staining-based flow cytometry; assay type: cell-based; conditions: gm16216, 2.5 µM
GM15850 [36] = experiment: Cytotoxicity against human GM15850 cells at 2.5 uM after 24 to 48 hrs by live/dead staining-based flow cytometry; assay type: cell-based; conditions: gm15850, 2.5 µM

| SMILES | Activity (GM16216 [1]) [%] | Activity (GM16216 [2]) [%] | Activity (GM15850 [3]) [%] | Activity (GM15850 [4]) [%] | Activity (GM16216 [6]) | inhibition (GM15850 [7]) | Activity (GM16216 [10]) | inhibition (GM16216 [11]) | Activity (GM15850 [12]) | Activity (GM15850 [14]) | Activity (GM16216 [15]) [%] | Activity (GM16216 [16]) [%] | Activity (GM15850 [17]) [%] | Activity (GM15850 [18]) [%] | Activity (GM15850 [19]) [%] | Activity (GM15850 [20]) [%] | Activity (GM15850 [21]) [%] | Activity (GM16216 [22]) [%] | Activity (GM16216 [23]) [%] | Activity (GM16216 [24]) [%] | further results |
| --- | --- | --- | --- | --- | --- | --- | --- | --- | --- | --- | --- | --- | --- | --- | --- | --- | --- | --- | --- | --- | --- |
| CN(C)c1ccc2nc3ccc(N(C)C)cc3[s+]c2c1.[Cl-] [METHYLENE BLUE ANHYDROUS] | 83 | 17 | 17 | 83 | – | – | – | – | – | – | – | – | – | – | – | – | – | – | – | – | – |
| CN(C)c1ccc2nc3ccc(=[N+](C)C)cc-3sc2c1 | – | – | – | – | inactive | Dose-dependent effect | Active | Dose-dependent effect | inactive | Active | – | – | – | – | – | – | – | – | – | – | Activity (GM15850 [5]): Active; Activity (GM15850 [8]): Active; Activity (GM16216 [9]): Active; Activity (GM16216 [13]): Active |
| CCCCCCCCCCCCCCCN(CCCC)c1ccc2nc3ccc(=O)cc-3sc2c1 | – | – | – | – | – | – | – | – | – | – | 123 | 123 | 127 | 116 | 127 | 137 | 121 | 127 | 115 | 116 | Activity (GM15850 [25]): 123%; Activity (GM15850 [26]): 123%; Activity (GM15850 [27]): 115%; Activity (GM16216 [28]): 121%; Activity (GM16216 [29]): 116%; Activity (GM16216 [30]): 117%; Activity (GM15850 [31]): 117%; Activity (GM16216 [32]): 127%; Activity (GM16216 [33]): 137%; Activity (GM15850 [34]): 116% |
| CCCCCCCCCCCCCc1cc2nc3ccc(N(C)C)cc3sc-2cc1=[N+](C)C.[I-] | 82 | 18 | 18 | 82 | inactive | Dose-dependent effect | Active | Dose-dependent effect | inactive | Active | – | – | – | – | – | – | – | – | – | – | Activity (GM16216 [35]): Toxic; Activity (GM15850 [36]): Toxic |
| CCCCCCCCCCCCCCCN(C)c1ccc2nc3ccc(=O)cc-3sc2c1 | – | – | – | – | – | – | – | – | – | – | 128 | 118 | 127 | 114 | 127 | 137 | 120 | 127 | 116 | 114 | Activity (GM15850 [25]): 128%; Activity (GM15850 [26]): 118%; Activity (GM15850 [27]): 116%; Activity (GM16216 [28]): 120%; Activity (GM16216 [29]): 123%; Activity (GM16216 [30]): 120%; Activity (GM15850 [31]): 120%; Activity (GM16216 [32]): 127%; Activity (GM16216 [33]): 137%; Activity (GM15850 [34]): 123% |

From ChEMBL document CHEMBL4257548, “Phenothiazine antioxidants increase mitochondrial biogenesis and frataxin levels in Friedreich's ataxia cells” (Medchemcomm, 2018)
